{"source": "paper PMC8032764", "about": "(Scientific Reports, 2021)", "key": {"[1]": {"system": "Purinergic P2Y", "assay": "Cerep binding", "details": "10 μM; [35S]dATPαS; rat cerebral cortex"}, "[2]": {"molecular_target": "T1, GABAA-α5 receptors (Homo sapiens, UniProt P18507+P31644)", "T1 construct": "occupancy at the GABAA-α5 subunit-containing receptors in the human brain after oral dosing; from tissue; host or cells: brain of healthy human volunteers, in vivo PET", "T1 sequence (P31644 32-462)": "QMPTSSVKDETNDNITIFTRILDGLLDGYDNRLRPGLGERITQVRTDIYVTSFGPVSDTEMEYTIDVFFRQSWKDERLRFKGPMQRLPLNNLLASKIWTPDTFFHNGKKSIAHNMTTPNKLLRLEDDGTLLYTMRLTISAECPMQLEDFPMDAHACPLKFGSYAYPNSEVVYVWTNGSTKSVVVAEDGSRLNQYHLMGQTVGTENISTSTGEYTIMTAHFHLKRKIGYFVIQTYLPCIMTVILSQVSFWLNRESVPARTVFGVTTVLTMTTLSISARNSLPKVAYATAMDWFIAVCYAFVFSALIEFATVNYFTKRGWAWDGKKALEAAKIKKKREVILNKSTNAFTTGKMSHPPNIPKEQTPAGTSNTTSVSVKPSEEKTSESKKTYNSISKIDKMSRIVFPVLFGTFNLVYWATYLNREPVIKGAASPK", "T1 sequence (P18507 40-467 limits assumed)": "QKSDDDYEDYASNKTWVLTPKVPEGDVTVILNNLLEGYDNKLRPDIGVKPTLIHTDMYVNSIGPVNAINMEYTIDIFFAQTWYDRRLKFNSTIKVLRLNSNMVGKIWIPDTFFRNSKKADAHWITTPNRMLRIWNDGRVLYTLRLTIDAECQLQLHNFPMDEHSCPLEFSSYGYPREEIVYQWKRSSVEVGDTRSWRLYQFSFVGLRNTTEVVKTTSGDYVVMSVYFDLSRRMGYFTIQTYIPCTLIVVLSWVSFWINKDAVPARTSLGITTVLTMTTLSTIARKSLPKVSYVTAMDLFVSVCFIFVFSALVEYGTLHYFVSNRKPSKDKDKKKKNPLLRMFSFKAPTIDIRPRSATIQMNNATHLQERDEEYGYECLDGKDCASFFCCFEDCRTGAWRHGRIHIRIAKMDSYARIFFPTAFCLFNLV", "T1 sequence (P28472 26-473 partner)": "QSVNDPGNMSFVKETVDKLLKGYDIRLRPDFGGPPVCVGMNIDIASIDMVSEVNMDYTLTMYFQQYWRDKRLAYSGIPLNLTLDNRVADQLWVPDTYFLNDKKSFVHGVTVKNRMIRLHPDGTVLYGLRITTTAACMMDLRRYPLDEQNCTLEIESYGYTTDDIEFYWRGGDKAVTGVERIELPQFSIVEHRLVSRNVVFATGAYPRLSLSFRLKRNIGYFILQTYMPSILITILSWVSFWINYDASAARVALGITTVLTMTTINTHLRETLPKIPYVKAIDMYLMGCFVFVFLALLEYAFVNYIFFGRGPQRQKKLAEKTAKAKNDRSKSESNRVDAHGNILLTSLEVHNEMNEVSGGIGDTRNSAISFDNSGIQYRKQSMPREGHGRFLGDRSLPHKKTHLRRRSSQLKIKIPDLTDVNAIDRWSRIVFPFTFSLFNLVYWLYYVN", "assay": "[11C]-Ro 15-4513 PET receptor occupancy study in healthy volunteers", "format": "in vivo", "details": "for EC50: Emax model, nine subjects", "text": "The PET study was undertaken as part of Protocol BP25611 and after four protocol amendments was described as: “A single-center, single blind molecular and functional imaging study to assess GABAA-α5 receptor expression, occupancy and functional connectivity in the brains of individuals with Down syndrome and healthy controls following a single oral administration of RO5186582 or placebo”. Full details of the protocol can be found in the Supplementary Information. The study was registered on August 17, 2012 with clinicaltrials.gov identifier NCT01667367.\nSubjects returned for a follow-up visit approximately 7 to 10 days after their last dose of study medication.\nThe study was single-blind, i.e., subjects were blinded to dose. Blood sampling was performed at four different timepoints starting 30 min before the post dose PET scan.\nTissue time activity curves were analyzed using the simplified reference tissue model (SRTM[71]), with a basis pursuit implementation of the SRTM[72], to directly estimate the binding potential (BPND) in all target regions. […] Therefore, the time-activity curve derived from the cerebellum was used as an input for SRTM analysis.\nOccupancy in scan 2 was estimated as a fractional reduction in the relevant baseline BPND (see Eq. (3)).3 Occ=BPNDBaseline-BPNDBasmisanil/BPNDBaseline.\nThe pharmacokinetic/pharmacodynamic population for GABAA-α5 receptor occupancy consisted of data from 9 subjects."}, "[3]": {"details": "subject 11010, 40 mg, 3.75 h prior to scan"}, "[4]": {"details": "subject 11020, 160 mg, 3.12 h prior to scan"}, "[5]": {"details": "subject 11021, 160 mg, 3.00 h prior to scan"}, "[6]": {"details": "subject 13010, 40 mg, 2.63 h prior to scan"}, "[7]": {"details": "subject 13030, 1000 mg, 4.75 h prior to scan"}, "[8]": {"details": "subject 13031, 1000 mg, 4.77 h prior to scan"}, "[9]": {"details": "subject 13040, 20 mg, 1.48 h prior to scan"}, "[10]": {"details": "subject 13041, 20 mg, 2.20 h prior to scan"}, "[11]": {"details": "subject 13050, 80 mg, 2.43 h prior to scan"}}, "note": "Where two headings read alike, the source gives them in different places."}
{"smiles": "Cc1onc(-c2ccc(F)cc2)c1COc1ccc(C(=O)N2CCS(=O)(=O)CC2)cn1", "note": "[basmisanil]", "values": [{"measurement": "% Inhibition", "setting": "[1]", "result": 9, "unit": "%"}, {"measurement": "EC50", "setting": "[2]; read-out: EC50 of receptor occupancy, free plasma concentration", "result": 67, "unit": "nM"}, {"measurement": "EC50", "setting": "[2]; read-out: EC50 of receptor occupancy, total plasma concentration (converted)", "result": "~1210", "unit": "nM"}, {"measurement": "Receptor occupancy, Accumbens", "setting": "[2]; [3]", "result": 52.1, "unit": "%"}, {"measurement": "Receptor occupancy, Amygdala", "setting": "[2]; [3]", "result": 53.5, "unit": "%"}, {"measurement": "Receptor occupancy, Anterior cingulate", "setting": "[2]; [3]", "result": 44.8, "unit": "%"}, {"measurement": "Receptor occupancy, Hippocampus", "setting": "[2]; [3]", "result": 48.4, "unit": "%"}, {"measurement": "Receptor occupancy, Insular cortex", "setting": "[2]; [3]", "result": 44.6, "unit": "%"}, {"measurement": "Receptor occupancy, Mean", "setting": "[2]; [3]", "result": 48.68, "unit": "%"}, {"measurement": "Receptor occupancy, Accumbens", "setting": "[2]; [4]", "result": 86.6, "unit": "%"}, {"measurement": "Receptor occupancy, Amygdala", "setting": "[2]; [4]", "result": 91.4, "unit": "%"}, {"measurement": "Receptor occupancy, Anterior cingulate", "setting": "[2]; [4]", "result": 75.6, "unit": "%"}, {"measurement": "Receptor occupancy, Hippocampus", "setting": "[2]; [4]", "result": 87.2, "unit": "%"}, {"measurement": "Receptor occupancy, Insular cortex", "setting": "[2]; [4]", "result": 75.2, "unit": "%"}, {"measurement": "Receptor occupancy, Mean", "setting": "[2]; [4]", "result": 83.2, "unit": "%"}, {"measurement": "Receptor occupancy, Accumbens", "setting": "[2]; [5]", "result": 87.0, "unit": "%"}, {"measurement": "Receptor occupancy, Amygdala", "setting": "[2]; [5]", "result": 85.4, "unit": "%"}, {"measurement": "Receptor occupancy, Anterior cingulate", "setting": "[2]; [5]", "result": 76.4, "unit": "%"}, {"measurement": "Receptor occupancy, Hippocampus", "setting": "[2]; [5]", "result": 85.9, "unit": "%"}, {"measurement": "Receptor occupancy, Insular cortex", "setting": "[2]; [5]", "result": 77.2, "unit": "%"}, {"measurement": "Receptor occupancy, Mean", "setting": "[2]; [5]", "result": 82.38, "unit": "%"}, {"measurement": "Receptor occupancy, Accumbens", "setting": "[2]; [6]", "result": 37.3, "unit": "%"}, {"measurement": "Receptor occupancy, Amygdala", "setting": "[2]; [6]", "result": 40, "unit": "%"}, {"measurement": "Receptor occupancy, Anterior cingulate", "setting": "[2]; [6]", "result": 32.7, "unit": "%"}, {"measurement": "Receptor occupancy, Hippocampus", "setting": "[2]; [6]", "result": 41.3, "unit": "%"}, {"measurement": "Receptor occupancy, Insular cortex", "setting": "[2]; [6]", "result": 32, "unit": "%"}, {"measurement": "Receptor occupancy, Mean", "setting": "[2]; [6]", "result": 36.66, "unit": "%"}, {"measurement": "Receptor occupancy, Accumbens", "setting": "[2]; [7]", "result": 89.5, "unit": "%"}, {"measurement": "Receptor occupancy, Amygdala", "setting": "[2]; [7]", "result": 93.1, "unit": "%"}, {"measurement": "Receptor occupancy, Anterior cingulate", "setting": "[2]; [7]", "result": 79.1, "unit": "%"}, {"measurement": "Receptor occupancy, Hippocampus", "setting": "[2]; [7]", "result": 94.2, "unit": "%"}, {"measurement": "Receptor occupancy, Insular cortex", "setting": "[2]; [7]", "result": 79.9, "unit": "%"}, {"measurement": "Receptor occupancy, Mean", "setting": "[2]; [7]", "result": 87.16, "unit": "%"}, {"measurement": "Receptor occupancy, Accumbens", "setting": "[2]; [8]", "result": 93.7, "unit": "%"}, {"measurement": "Receptor occupancy, Amygdala", "setting": "[2]; [8]", "result": 97.4, "unit": "%"}, {"measurement": "Receptor occupancy, Anterior cingulate", "setting": "[2]; [8]", "result": 82.1, "unit": "%"}, {"measurement": "Receptor occupancy, Hippocampus", "setting": "[2]; [8]", "result": 94.9, "unit": "%"}, {"measurement": "Receptor occupancy, Insular cortex", "setting": "[2]; [8]", "result": 82.2, "unit": "%"}, {"measurement": "Receptor occupancy, Mean", "setting": "[2]; [8]", "result": 90.06, "unit": "%"}, {"measurement": "Receptor occupancy, Accumbens", "setting": "[2]; [9]", "result": 29.6, "unit": "%"}, {"measurement": "Receptor occupancy, Amygdala", "setting": "[2]; [9]", "result": 30.9, "unit": "%"}, {"measurement": "Receptor occupancy, Anterior cingulate", "setting": "[2]; [9]", "result": 26.2, "unit": "%"}, {"measurement": "Receptor occupancy, Hippocampus", "setting": "[2]; [9]", "result": 26.8, "unit": "%"}, {"measurement": "Receptor occupancy, Insular cortex", "setting": "[2]; [9]", "result": 26.7, "unit": "%"}, {"measurement": "Receptor occupancy, Mean", "setting": "[2]; [9]", "result": 28.04, "unit": "%"}, {"measurement": "Receptor occupancy, Accumbens", "setting": "[2]; [10]", "result": 31.8, "unit": "%"}, {"measurement": "Receptor occupancy, Amygdala", "setting": "[2]; [10]", "result": 34.7, "unit": "%"}, {"measurement": "Receptor occupancy, Anterior cingulate", "setting": "[2]; [10]", "result": 31.7, "unit": "%"}, {"measurement": "Receptor occupancy, Hippocampus", "setting": "[2]; [10]", "result": 35.8, "unit": "%"}, {"measurement": "Receptor occupancy, Insular cortex", "setting": "[2]; [10]", "result": 31.7, "unit": "%"}, {"measurement": "Receptor occupancy, Mean", "setting": "[2]; [10]", "result": 33.14, "unit": "%"}, {"measurement": "Receptor occupancy, Accumbens", "setting": "[2]; [11]", "result": 64.2, "unit": "%"}, {"measurement": "Receptor occupancy, Amygdala", "setting": "[2]; [11]", "result": 63.5, "unit": "%"}, {"measurement": "Receptor occupancy, Anterior cingulate", "setting": "[2]; [11]", "result": 55.8, "unit": "%"}, {"measurement": "Receptor occupancy, Hippocampus", "setting": "[2]; [11]", "result": 63, "unit": "%"}, {"measurement": "Receptor occupancy, Mean", "setting": "[2]; [11]", "result": 60.86, "unit": "%"}]}
